Source: patent publication US4017611A, “Control of insects with 3-hydroxymethacrylic acid methyl ester dimethylthionophosphate” (priority 1970, dated 1977)
Read-outs that look alike come from different tables or passages of the source.

What was measured:
[1] = test system: one day old houseflies (Musca domestica); assay: Ingestion test with one day old houseflies; format: in vivo; conditions: read-out: % flies killed; for mortality at 0.4 ppm: 0.4 ppm in 30% sugar water; for mortality at 0.8 ppm: 0.8 ppm in 30% sugar water; for mortality at 1.5 ppm: 1.5 ppm in 30% sugar water; for mortality at 3 ppm: 3 ppm in 30% sugar water; for mortality at 6 ppm: 6 ppm in 30% sugar water; for mortality at 12 ppm: 12 ppm in 30% sugar water; for mortality at 25 ppm: 25 ppm in 30% sugar water; for mortality at 50 ppm: 50 ppm in 30% sugar water; for mortality at 100 ppm: 100 ppm in 30% sugar water
Method: Dilution series were manufactured with water. As solvent for the test preparations and similarly as a nutrition agent for the flies, 30% sugar water was used which had been coloured with chlorantin light red (as an attractant). The dilutions were tested with one day old houseflies. The 1, 2 and 4 hour controls enabled the speed of action to be determined. By means of the 24 hour control the limit concentration (action strength) could also be determined.

[2] = Acute oral toxicity (warm blooded toxicity) in rats; conditions: rat, in vivo, po
[3] = test system: rats; assay: as above; conditions: orally, rats
[4] = test system: adult houseflies; assay: Gas action against adult houseflies; format: in vivo, Musca domestica (housefly); conditions: 10 mg active substance, 2 liter glass cylinder
Method: Using a pipette 10 mg of active substance were placed on a watch glass which was then covered with a wire mesh and placed in a 2 liter glass cylinder. Immediately thereafter 30 houseflies were introduced into the container which was then sealed.
A comparative test between compound 1 and PHOSDRIN (Registered Trade Mark) carried out according to this method gave the following mortality periods in minutes for 10%, 50% and 100% kill of the test animals.

Work on COC(=O)C=C(C)OP(=O)(OC)OC [Phosdrin, reference compound] yielded a mortality at 0.4 ppm ([1]; 1 hour) of 0%, a mortality at 0.4 ppm ([1]; 2 hours) of 0% and a mortality at 0.4 ppm ([1]; 4 hours) of 0%. For the same molecule, the mortality at 0.4 ppm ([1]; 24 hours) was 0%, the mortality at 0.8 ppm ([1]; 1 hour) was 0% and the mortality at 0.8 ppm ([1]; 2 hours) was 0%. The mortality at 0.8 ppm ([1]; 4 hours) was 0%, the mortality at 0.8 ppm ([1]; 24 hours) was 0% and the mortality at 1.5 ppm ([1]; 1 hour) was 0%. It also gave a mortality at 1.5 ppm ([1]; 2 hours) of 0%, a mortality at 1.5 ppm ([1]; 4 hours) of 0% and a mortality at 1.5 ppm ([1]; 24 hours) of 0%. It also gave a mortality at 3 ppm ([1]; 1 hour) of 0%, a mortality at 3 ppm ([1]; 2 hours) of 0% and a mortality at 3 ppm ([1]; 4 hours) of 0%. It also gave a mortality at 3 ppm ([1]; 24 hours) of 20%, a mortality at 6 ppm ([1]; 1 hour) of 0% and a mortality at 6 ppm ([1]; 2 hours) of 0%. It also gave a mortality at 6 ppm ([1]; 4 hours) of 10%, a mortality at 6 ppm ([1]; 24 hours) of 80% and a mortality at 12 ppm ([1]; 1 hour) of 0%. The mortality at 12 ppm ([1]; 2 hours) was 0%, the mortality at 12 ppm ([1]; 4 hours) was 20% and the mortality at 12 ppm ([1]; 24 hours) was 90%. The mortality at 25 ppm ([1]; 1 hour) was 20%, the mortality at 25 ppm ([1]; 2 hours) was 40% and the mortality at 25 ppm ([1]; 4 hours) was 60%. For the same molecule, the mortality at 25 ppm ([1]; 24 hours) was 100%, the mortality at 50 ppm ([1]; 1 hour) was 30% and the mortality at 50 ppm ([1]; 2 hours) was 70%. The mortality at 50 ppm ([1]; 4 hours) was 80%, the mortality at 50 ppm ([1]; 24 hours) was 100% and the mortality at 100 ppm ([1]; 1 hour) was 100%. The mortality at 100 ppm ([1]; 2 hours) was 100%, the mortality at 100 ppm ([1]; 4 hours) was 100% and the mortality at 100 ppm ([1]; 24 hours) was 100%. The LD50 [2] was 3 to 7 mg/kg, the “warm blooded toxicity LD50” value [3] was 3-7 mg/kg body weight and the “Mortality time for 10% of the houseflies” value ([4]; 10% kill) was 22 min. The “Mortality time for 50% of the houseflies” value ([4]; 50% kill) was 25 min and the “Mortality time for 100% of the houseflies” value ([4]; 100% kill) was 30 min.
